From patent US20230159453A1 (COCRYSTAL PHARMA, INC., priority 2020, published 2023)

The compounds below were run against SARS2 protease (Severe acute respiratory syndrome coronavirus 2, UniProt P0DTD1) (assay: SARS-CoV-2 protease inhibition assay (SARS2 FRET protease assay)). Settings: IC50 (μM).
Format: biochemical

With `CC(C)C[C@H](NC(=O)OC1CCCC1Cc1ccccc1)C(=O)N[C@@H](C[C@@H]1CCNC1=O)C(=O)CCl` (stereo partly drawn) [Compound C199, 2-Benzylcyclopentyl ((S)-1-(((S)-4-chloro-3-oxo-1-((S)-2-oxopyrrolidin-3-yl)butan-2-yl)amino)-4-methyl-1-oxopentan-2-yl)carbamate] the IC50 was 0.196 µM.

Same assay, conditions: SARS-CoV-2 protease 25 nM, FRET, peptide substrate 1.3 μM, 30 minutes at 30° C., compounds 20 μM to 1.0 nM; read-out: IC50

`CC(C)C[C@H](NC(=O)OC1(Cc2cccc(Cl)c2)CC1)C(=O)N[C@H](C=O)C[C@@H]1CCNC1=O` [Compound C45, 1-(3-Chlorobenzyl) cyclopropyl ((S)-4-methyl-1-oxo-1-(((S)-1-oxo-3-((S)-2-oxopyrrolidin-3-yl)propan-2-yl)amino)pentan-2-yl)carbamate] and `COc1cccc(CC2(OC(=O)N[C@@H](CC(C)C)C(=O)N[C@H](C=O)C[C@@H]3CCNC3=O)CC2)c1` [Compound C42, 1-(3-Methoxybenzyl)cyclopropyl ((S)-4-methyl-1-oxo-1-(((S)-1-oxo-3-((S)-2-oxopyrrolidin-3-yl)propan-2-yl)amino)pentan-2-yl)carbamate] are within 1.5-fold of each other in IC50: 0.304 µM for the first, 0.356 µM for the second.

First: CC(C)C[C@H](NC(=O)OC1(Cc2ccccc2)CC1)C(=O)N[C@@H](C[C@@H]1CCNC1=O)C(O)S(=O)(=O)O (stereo partly drawn) [Compound C48, (2S)-2-((S)-2-(((1-Benzylcyclopropoxy)carbonyl)amino)-4-methylpentanamido)-1-hydroxy-3-((S)-2-oxopyrrolidin-3-yl) propane-1-sulfonate]
Second: CC(C)C[C@H](NC(=O)OC1(Cc2ccccc2)CCC1)C(=O)N[C@@H](C[C@@H]1CCNC1=O)C(=O)C(N)=O [Compound C73, 1-Benzylcyclobutyl ((S)-1-(((S)-4-amino-3,4-dioxo-1-((S)-2-oxopyrrolidin-3-yl)butan-2-yl)amino)-4-methyl-1-oxopentan-2-yl)carbamate]
The IC50 of the first is 2.5-fold lower: 0.241 µM for the first, 0.6 µM for the second. The first is the more potent here.

Going from `CC(=O)N1CCC2(CC1)CC(CC(NC(=O)[C@H](CC1CCCCC1)NC(=O)c1cc3cc(Cl)ccc3[nH]1)C(=O)C(N)=O)C(=O)N2` (stereo partly drawn) [Compound C126, N-((2S)-1-((1-(8-acetyl-2-oxo-1,8-diazaspiro[4.5]decan-3-yl)-4-amino-3,4-dioxobutan-2-yl)amino)-3-cyclohexyl-1-oxopropan-2-yl)-5-chloro-1H-indole-2-carboxamide] to `CC(=O)N1CCC2(CC1)CC(CC(NC(=O)[C@@H](CC1CCCCC1)NC(=O)c1cc3ccccc3[nH]1)C(=O)C(N)=O)C(=O)N2` (stereo partly drawn) [Compound C112, N-((2R)-1-((1-(8-acetyl-2-oxo-1,8-diazaspiro[4.5]decan-3-yl)-4-amino-3,4-dioxobutan-2-yl)amino)-3-cyclohexyl-1-oxopropan-2-yl)-1H-indole-2-carboxamide], the IC50 falls from 1.19 µM to 0.185 µM (6.4-fold). The second is the more potent here.

First: CCN1CCN(C(=O)C(=O)[C@H](C[C@@H]2CCNC2=O)NC(=O)[C@H](CC(C)C)NC(=O)OC(c2ccccc2)C(C)(C)c2cccc(Cl)c2)CC1 (stereo partly drawn) [Compound C287]
Second: CC(C)C[C@H](NC(=O)OC(c1ccccc1)C(C)(C)c1cccc(Cl)c1)C(=O)N[C@@H](CC1CC(C)(C)NC1=O)C(=O)C(=O)NC1CC1 (stereo partly drawn) [Compound C163, 2-(3-Chlorophenyl)-2-methyl-1-phenylpropyl ((2S)-1-((4-(cyclopropylamino)-1-(5,5-dimethyl-2-oxopyrrolidin-3-yl)-3,4-dioxobutan-2-yl)amino)-4-methyl-1-oxopentan-2-yl) carbamate]
The IC50 of the first is higher: > 20 µM for the first, 1.81 µM for the second.

Going from `CC(C)C[C@H](NC(=O)OCCCc1ccccc1)C(=O)N[C@@H](C[C@@H]1CCNC1=O)C(=O)C(N)=O` [Compound C256] to `CC(C)C[C@H](NC(=O)OC1(Cc2cccc(Cl)c2)CC1)C(=O)N[C@@H](C[C@@H]1CCNC1=O)C(=O)C(N)=O` [Compound C88, 1-(3-Chlorobenzyl) cyclopropyl ((S)-1-(((S)-4-amino-3,4-dioxo-1-((S)-2-oxopyrrolidin-3-yl)butan-2-yl)amino)-4-methyl-1-oxopentan-2-yl)carbamate], the IC50 rises from 0.32 µM to 1.3 µM (4.1-fold).

`CC(=O)N1CCC2(CC1)CC(CC(C=O)NC(=O)[C@H](CC(C)C)NC(=O)OCc1cccc(Cl)c1)C(=O)N2` (stereo partly drawn) [Compound C54, 3-Chlorobenzyl ((2S)-1-((1-(8-acetyl-2-oxo-1,8-diazaspiro[4.5]decan-3-yl)-3-oxopropan-2-yl)amino)-4-methyl-1-oxopentan-2-yl)carbamate] and `CC(=O)N1CCC2(CC1)CC(CC(C=O)NC(=O)[C@H](CC(C)C)NC(=O)OCC(C)(C)c1cccc(Cl)c1)C(=O)N2` (stereo partly drawn) [Compound C70, 2-(3-Chlorophenyl)-2-methylpropyl ((2S)-1-((1-(8-acetyl-2-oxo-1,8-diazaspiro[4.5]decan-3-yl)-3-oxopropan-2-yl)amino)-4-methyl-1-oxopentan-2-yl)carbamate] are the same in IC50: 0.1 µM for the first, 0.1 µM for the second.

First: CC(C)(c1cccc(Cl)c1)C(OC(=O)N[C@@H](CC1CCCCC1)C(=O)N[C@H](C=O)C[C@@H]1CCNC1=O)c1ccc2ccccc2c1 (stereo partly drawn) [Compound C127]
Second: CC(C)(c1cccc(Cl)c1)C(OC(=O)N[C@@H](CC1CCCCC1)C(=O)N[C@@H](C[C@@H]1CCNC1=O)C(=O)CO)c1ccccc1 (stereo partly drawn) [Compound C273]
The IC50 of the first is 1500-fold lower: 0.0036 µM for the first, 5.35 µM for the second. The first is the more potent here.

Going from `CC(C)(c1cccc(Cl)c1)C(OC(=O)N[C@@H](CC1CCCCC1)C(=O)N[C@@H](C[C@@H]1CCNC1=O)C(=O)C(=O)NC1CC1)c1ccccc1Cl` (stereo partly drawn) [Compound C186, 1-(2-Chlorophenyl)-2-(3-chlorophenyl)-2-methylpropyl ((S)-3-cyclohexyl-1-(((S)-4-(cyclopropylamino)-3,4-dioxo-1-((S)-2-oxopyrrolidin-3-yl)butan-2-yl)amino)-1-oxopropan-2-yl) carbamate] to `Cc1cccc(C(OC(=O)N[C@@H](CC2CCCCC2)C(=O)N[C@@H](C[C@@H]2CCNC2=O)C(=O)C(N)=O)C(C)(C)c2cccc(Cl)c2)c1` (stereo partly drawn) [Compound C124, 2-(3-chlorophenyl)-2-methyl-1-(m-tolyl)propyl ((S)-1-(((S)-4-amino-3,4-dioxo-1-((S)-2-oxopyrrolidin-3-yl)butan-2-yl)amino)-3-cyclohexyl-1-oxopropan-2-yl) carbamate], the IC50 falls from 1.24 µM to 0.324 µM (3.8-fold).

Compared with `CC(C)(c1cccc(Cl)c1)C(OC(=O)N[C@@H](CC1CCCCC1)C(=O)N[C@@H](C[C@@H]1CCNC1=O)C(=O)C(N)=O)c1ccc(F)cc1` (stereo partly drawn) [Compound C135, 2-(3-Chlorophenyl)-1-(4-fluorophenyl)-2-methylpropyl ((S)-1-(((S)-4-amino-3,4-dioxo-1-((S)-2-oxopyrrolidin-3-yl)butan-2-yl)amino)-3-cyclohexyl-1-oxopropan-2-yl) carbamate], `CC1(C)CC(CC(NC(=O)[C@H](CC2CCCCC2)NC(=O)OC(Cc2cccc(Cl)c2)c2ccccc2)C(=O)C(N)=O)C(=O)N1` (stereo partly drawn) [Compound C217, 2-(3-Chlorophenyl)-1-phenylethyl ((2S)-1-((4-amino-1-(5,5-dimethyl-2-oxopyrrolidin-3-yl)-3,4-dioxobutan-2-yl)amino)-3-cyclohexyl-1-oxopropan-2-yl) carbamate] is 2.1-fold higher in IC50: 1.89 µM for the first, 3.99 µM for the second. The first is the more potent here.

First: CCOP(=O)(OCC)C(O)[C@H](CC1CCN(CCc2ccccc2)C1=O)NC(=O)[C@H](CC1CCCCC1)NC(=O)OCc1cccc(Cl)c1 (stereo partly drawn) [Compound C8, 3-Chlorobenzyl ((2S)-3-cyclohexyl-1-((1-(diethoxyphosphaneyl)-1-hydroxy-3-(2-oxo-1-phenethylpyrrolidin-3-yl)propan-2-yl)amino)-1-oxopropan-2-yl) carbamate]
Second: O=C[C@H](C[C@@H]1CCNC1=O)NC(=O)[C@H](CC1CCCCC1)NC(=O)OC(Cc1cccc(Cl)c1)c1ccccc1 (stereo partly drawn) [Compound C109, 2-(3-Chlorophenyl)-1-phenylethyl ((S)-3-cyclohexyl-1-oxo-1-(((S)-1-oxo-3-((S)-2-oxopyrrolidin-3-yl)propan-2-yl)amino)propan-2-yl)carbamate]
The IC50 of the first is higher: > 200 µM for the first, 0.002 µM for the second. The second is the more potent here.

First: O=CC(CC1CC2(CCOCC2)NC1=O)NC(=O)[C@H](CC1CCCCC1)NC(=O)OC1CCCC1Cc1cccc(Cl)c1 (stereo partly drawn) [Compound C225, 2-(3-chlorobenzyl)cyclopentyl ((2S)-3-cyclohexyl-1-oxo-1-((1-oxo-3-(2-oxo-8-oxa-1-azaspiro[4.5]decan-3-yl)propan-2-yl)amino)propan-2-yl)carbamate]
Second: O=C(N[C@@H](CC1CCCCC1)C(=O)NC(CC1CC2(CCOCC2)NC1=O)C(=O)C(=O)NC1CC1)OC1CCCC1Cc1cccc(Cl)c1 (stereo partly drawn) [Compound C206, 2-(3-Chlorobenzyl)cyclopentyl ((2S)-3-cyclohexyl-1-((4-(cyclopropylamino)-3,4-dioxo-1-(2-oxo-8-oxa-1-azaspiro[4.5]decan-3-yl)butan-2-yl)amino)-1-oxopropan-2-yl)carbamate]
The IC50 of the first is 5.1-fold lower: 1.01 µM for the first, 5.11 µM for the second. The first is the more potent here.

Compared with `CC(C)(COC(=O)N[C@H](C(=O)N[C@@H](C[C@@H]1CCNC1=O)C(O)S(=O)(=O)O)C(C)(C)C)c1cccc(Cl)c1` (stereo partly drawn) [Compound C111, Sodium (2S)-2-((S)-2-(((2-(3-chlorophenyl)-2-methylpropoxy)carbonyl)amino)-3,3-dimethylbutanamido)-1-hydroxy-3-((S)-2-oxopyrrolidin-3-yl)propane-1-sulfonate], `CC(C)C[C@H](NC(=O)OCC(C)(C)c1cccc(Cl)c1)C(=O)N[C@H](CO)C[C@@H]1CCNC1=O` [Compound C101, 2-(3-Chlorophenyl)-2-methylpropyl ((S)-1-(((S)-1-hydroxy-3-((S)-2-oxopyrrolidin-3-yl)propan-2-yl)amino)-4-methyl-1-oxopentan-2-yl)carbamate] is higher in IC50: 0.491 µM for the first, > 20 µM for the second. The first is the more potent here.

Compared with `CC(C)C[C@H](NC(=O)OC1(Cc2cccc(Cl)c2)CCC1)C(=O)N[C@@H](CC1CC2(CCOCC2)NC1=O)C(=O)C(=O)NC1CC1` (stereo partly drawn) [Compound C169, 1-(3-chlorobenzyl)cyclobutyl ((2S)-1-((4-(cyclopropylamino)-3,4-dioxo-1-(2-oxo-8-oxa-1-azaspiro[4.5]decan-3-yl)butan-2-yl)amino)-4-methyl-1-oxopentan-2-yl)carbamate], `O=C(N[C@@H](CC1CCCCC1)C(=O)N[C@@H](C[C@@H]1CCNC1=O)C(=O)C(=O)NC1CC1)O[C@H]1CCC[C@@H]1Cc1cccc(Cl)c1` [Compound C264] is 8.8-fold lower in IC50: 5.99 µM for the first, 0.68 µM for the second.
